The record followed here is patent publication US20080139664A1, “ANTI-GLYCATION AGENTS FOR PREVENTING AGE-, DIABETES-, AND SMOKING-RELATED COMPLICATIONS” (NATIONAL RESEARCH COUNCIL OF CANADA, priority 2001, published 2008).

In data set [1] the test system is bovine serum albumin (BSA).
The subject of data set [2] is bovine serum albumin (BSA). Briefly: Fluorescamine assay of free primary amino groups of BSA incubated with D-ribose. It counts as biochemical. As to conditions: free primary amino group on BSA after 5 days at 37° C.; agent at 16.8 times IC50; 64% without agent. As for the experimental part: Fluorescamine assay (Yeboah F. et al., J. Agric. Food Chem. 48, 2766-2774 (2000)) was performed on incubated mixtures of BSA and D-ribose, with or without the identified anti-glycation agents. The mixtures contained BSA (0.075 mM protein concentration or 4.53 mM of Lys residue concentration) and D-ribose (50 mM). […] The fluorescamine assay determines the number of free lysine residues of BSA. In this experiment, the final volume of the incubation mixtures was 10 mL and the incubation time was 5 days at 37° C. Prior to the fluorescamine assay, the proteins were isolated by reverse phase HPLC. The protein content was determined using the Bio-Rad protein determination reagent (Bradford method). The fluorescamine assay was done in triplicate.

The test system of a further data set is lysozyme. Briefly: ESI-MS of lysozyme glycoforms after incubation with D-ribose.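 On all read-outs here: lysozyme incubated with D-ribose, with or without anti-glycation agents, then separated by reversed-phase HPLC and analysed by electrospray mass spectrometry.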 Particulars: 37° C., 5 days; for Peak area as % of total area of all glycoforms, 14,569: lysozyme + 2D-ribose − 2H2O (14,569 Da); for Peak area as % of total area of all glycoforms, 14,551: lysozyme + 2D-ribose − 3H2O (14,551 Da); for Peak area as % of total area of all glycoforms, 14,533: lysozyme + 2D-ribose − 5H2O (14,533 Da); for Peak area as % of total area of all glycoforms, 14,515: lysozyme + 2D-ribose − 6H2O (14,515 Da); for Peak area as % of total area of all glycoforms, 14,419: lysozyme + D-ribose − 2H2O (14,419 Da); for Peak area as % of total area of all glycoforms, 14,401: lysozyme + D-ribose − 3H2O (14,401 Da); for Peak area as % of total area of all glycoforms, 14,437: lysozyme + D-ribose − H2O (14,437 Da); for Peak area as % of total area of all glycoforms, 14,496: lysozyme + D-ribose − H2O with one carboxymethylated Lys residue (14,496 Da); for Peak area as % of total area of all glycoforms, 14,364: lysozyme with one carboxymethylated Lys residue (14,364 Da); for Peak area as % of total area of all glycoforms, 14,305: unmodified lysozyme (14,305 Da).

What is called IC50 is the concentration that inhibits the measured activity by half. A high value points to weaker potency in that assay. In data set [1], `C[C@@](Cc1ccc(O)c(O)c1)(NN)C(=O)O` [S(−)-Carbidopa] came in with a half-maximal inhibitory concentration (IC50) of 140 µM. The same compound registered an Unreacted amino group in data set [2] of 89%. Besides, in the data set with lysozyme, the “Peak area as % of total area of all glycoforms, 14,569” value (shortened to “Peak area as % of total area … 14,569”) came to 0.0%; the “Peak area as % of total area of all glycoforms, 14,551” value (“Peak area as % of total area … 14,551” for short) is 2.4%; the “Peak area as % of total area of all glycoforms, 14,533” value (“Peak area as % of total area … 14,533” below) was found to be 0.8%; the “Peak area as % of total area of all glycoforms, 14,515” value (shortened to “Peak area as % of total area … 14,515”) amounted to 0.6%. Besides, in the data set with lysozyme, the “Peak area as % of total area of all glycoforms, 14,419” value (“Peak area as % of total area … 14,419” for short) is on record as 3.2%; the “Peak area as % of total area of all glycoforms, 14,401” value (“Peak area as % of total area … 14,401” below) is recorded as 2.0%; the “Peak area as % of total area of all glycoforms, 14,437” value (shortened to “Peak area as % of total area … 14,437”) turned out to be 18.4%; the “Peak area as % of total area of all glycoforms, 14,496” value (“Peak area as % of total area … 14,496” for short) is listed as 0.9%. Also, in the data set on lysozyme, the “Peak area as % of total area of all glycoforms, 14,364” value (“Peak area as % of total area … 14,364” below) was found to be 3.7% and the “Peak area as % of total area of all glycoforms, 14,305” value (shortened to “Peak area as % of total area … 14,305”) is recorded as 67.9%.
`CS(=O)(=O)Nc1ccc([N+](=O)[O-])cc1Oc1ccccc1` [Nimesulide] showed an IC50 in data set [1] of 350 µM. For the same compound, the Unreacted amino group in data set [2] is given as 69%. Besides, in the data set with lysozyme, the “Peak area as % of total area … 14,569” value came to 5.2%; the “Peak area as % of total area … 14,551” value was found to be 3.8%; the “Peak area as % of total area … 14,533” value worked out at 2.3%; the “Peak area as % of total area … 14,515” value is 1.3%. In the data set with lysozyme, the “Peak area as % of total area … 14,419” value is on record as 7.6%; the “Peak area as % of total area … 14,401” value amounted to 0.0%; the “Peak area as % of total area … 14,437” value came out at 22.6%; the “Peak area as % of total area … 14,496” value worked out at 0.0%. Further, in the data set with lysozyme, the “Peak area as % of total area … 14,364” value is 3.4% and the “Peak area as % of total area … 14,305” value came out at 49.8%.
On to `Oc1ccc(CC2NCCc3cc(O)c(O)cc32)cc1O` (racemic) [(±)-Tetrahydropapaveroline], for which the IC50 in data set [1] came to 90 µM. Also, the Unreacted amino group in data set [2] was 51%. Moreover, in the data set on lysozyme, the “Peak area as % of total area … 14,569” value is given as 2.3%; the “Peak area as % of total area … 14,551” value is 0.7%; the “Peak area as % of total area … 14,533” value is on record as 0.8%; the “Peak area as % of total area … 14,515” value is listed as 0.0%. Besides, in the data set on lysozyme, the “Peak area as % of total area … 14,419” value is given as 2.8%; the “Peak area as % of total area … 14,401” value is 2.1%; the “Peak area as % of total area … 14,437” value is reported as 17.6%; the “Peak area as % of total area … 14,496” value came to 0.9%. In the data set on lysozyme, the “Peak area as % of total area … 14,364” value is given as 3.9% and the “Peak area as % of total area … 14,305” value worked out at 68.9%.
As for `O=C1C=C(O)C(=O)c2ccccc21` [Lawsone], the IC50 in data set [1] came out at 190 µM. This compound also had an Unreacted amino group in data set [2] of 44%. In addition, in the data set with lysozyme, the “Peak area as % of total area … 14,569” value came out at 0.0%; the “Peak area as % of total area … 14,551” value worked out at 0.0%; the “Peak area as % of total area … 14,533” value is 0.9%; the “Peak area as % of total area … 14,515” value was found to be 0.8%. In the data set on lysozyme, the “Peak area as % of total area … 14,419” value is recorded as 4.9%; the “Peak area as % of total area … 14,401” value is reported as 0.0%; the “Peak area as % of total area … 14,437” value was determined as 9.5%; the “Peak area as % of total area … 14,496” value is 0.0%. Further, in the data set on lysozyme, the “Peak area as % of total area … 14,364” value came to 7.5% and the “Peak area as % of total area … 14,305” value is recorded as 74.3%.
In data set [1], `Cc1ncc([N+](=O)[O-])n1CC(O)CCl` (stereo not drawn) [Ornidazole] gave an IC50 of 570 µM. The compound also yielded an Unreacted amino group in data set [2] of 60%. In the data set on lysozyme, the “Peak area as % of total area … 14,569” value was 4.8%; the “Peak area as % of total area … 14,551” value is recorded as 3.4%; the “Peak area as % of total area … 14,533” value stood at 2.0%; the “Peak area as % of total area … 14,515” value is reported as 0.9%. In addition, in the data set with lysozyme, the “Peak area as % of total area … 14,419” value was 6.7%; the “Peak area as % of total area … 14,401” value was found to be 0.0%; the “Peak area as % of total area … 14,437” value amounted to 23.4%; the “Peak area as % of total area … 14,496” value amounted to 0.0%. Moreover, in the data set on lysozyme, the “Peak area as % of total area … 14,364” value was 3.2% and the “Peak area as % of total area … 14,305” value was determined as 54.2%.
